Assay results reported in patent US20260297070A1, “CYCLIC [COMPOUND LEFT OUT] WRN INHIBITORS” (Nimbus Wadjet, Inc., priority 2023, published 2026).
pIC50: −log10 of the molar value.

Target: T1, human Werner helicase (WRN-BV08, Uniprot Q14191, amino acids 517-1235 with L1074F point mutation) (Homo sapiens, UniProt Q14191, L1074F)
T1 construct: Uniprot Q14191, amino acids 517-1235 with L1074F point mutation; TEV-cleavable 8×His (C, cleaved yes); made in house; host or cells: Sf9 insect cells (baculovirus)
T1 sequence (Q14191 with tags, fused parts or gaps L1074F limits assumed): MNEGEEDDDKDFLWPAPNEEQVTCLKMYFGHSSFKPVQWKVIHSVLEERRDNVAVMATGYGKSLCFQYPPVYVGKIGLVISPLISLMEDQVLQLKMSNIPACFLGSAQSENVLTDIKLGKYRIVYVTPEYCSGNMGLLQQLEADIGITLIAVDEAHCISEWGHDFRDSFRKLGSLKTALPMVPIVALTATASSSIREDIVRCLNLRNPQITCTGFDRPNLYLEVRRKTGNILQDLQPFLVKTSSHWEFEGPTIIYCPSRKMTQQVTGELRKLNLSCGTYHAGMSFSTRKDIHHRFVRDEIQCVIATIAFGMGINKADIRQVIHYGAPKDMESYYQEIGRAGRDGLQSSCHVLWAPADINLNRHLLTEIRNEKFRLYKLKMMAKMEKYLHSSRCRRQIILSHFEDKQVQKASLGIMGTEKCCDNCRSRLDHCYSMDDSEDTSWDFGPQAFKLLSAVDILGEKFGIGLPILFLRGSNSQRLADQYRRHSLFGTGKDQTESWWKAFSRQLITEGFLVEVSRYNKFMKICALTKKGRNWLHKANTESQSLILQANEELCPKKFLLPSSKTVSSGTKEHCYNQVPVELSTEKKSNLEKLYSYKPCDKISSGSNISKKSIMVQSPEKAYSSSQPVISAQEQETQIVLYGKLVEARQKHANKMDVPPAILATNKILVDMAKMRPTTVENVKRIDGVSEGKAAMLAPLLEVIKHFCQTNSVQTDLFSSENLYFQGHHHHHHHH
Test: WRN (BV08) ADP-Glo Assay
Assay type: biochemical
Conditions: 0.15 nM WRN, 5 μM ATP, 0.1 nM DNA duplex, 15 min preincubation, 60 min at 25° C., pH 7.5, 1% DMSO; read-out: ADP-Glo_hWRN_IC50
In short: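 Untagged WRN (Sf9-expressed, TEV-cleaved) at 0.15 nM was preincubated 15 min at 25 °C with compound, then reacted 60 min at 25 °C with 5 μM ATP and 0.1 nM DNA duplex in Bicine pH 7.5, 1 mM MgCl2. ADP-Glo luminescence gave % inhibition; IC50 by four-parameter fit.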

Row | SMILES | pIC50
1 | CN(C)C(=O)CC(C(=O)N(Cc1ccnc(C(C)(C)O)c1)C1C=CS(=O)(=O)C1)c1ccc(S(F)(F)(F)(F)F)cc1 (centres unmarked) [I-460, N-(1,1-dioxo-2,3-dihydro-1lambda6-thiophen-3-yl)-N-{[2-(2-hydroxypropan-2-yl)pyridin-4-yl]methyl}-N′,N′-dimethyl-2-[4-(pentafluoro-lambda6-sulfanyl)phenyl]butanediamide] | < 4.30
2 | CCOC(C(=O)N(Cc1ccnc(OC)c1)C1C=CS(=O)(=O)C1)c1ccc(-c2ccc(F)cc2)cc1 (centres unmarked) [I-113, N-(1,1-dioxo-2,3-dihydro-1lambda6-thiophen-3-yl)-2-ethoxy-2-{4′-fluoro-[1,1′-biphenyl]-4-yl}-N-[(2-methoxypyridin-4-yl)methyl]acetamide] | 5.30 to 6.30
3 | O=C(C(C(=O)N(Cc1ccncc1)C1C=CS(=O)(=O)C1)c1ccc(-c2ccc(F)cc2)cc1)N1CCCC1 (centres unmarked) [I-125, N-(1,1-dioxo-2,3-dihydro-1lambda6-thiophen-3-yl)-2-{4′-fluoro-[1,1′-biphenyl]-4-yl}-3-oxo-N-[(pyridin-4-yl)methyl]-3-(pyrrolidin-1-yl)propanamide] | 5.30 to 6.30
4 | CN(C)C(=O)C(C(=O)N(Cc1ccncc1)C1C=CS(=O)(=O)C1)c1ccc(-c2ccc(F)cc2)cc1 (single isomer, unassigned) [I-374, (2R**)-N′-[(3R*)-1,1-dioxo-2,3-dihydro-1lambda6-thiophen-3-yl]-2-{4′-fluoro-[1,1′-biphenyl]-4-yl}-N,N-dimethyl-N′-[(pyridin-4-yl)methyl]propanediamide] | < 4.30
5 | CN(C)C(=O)C(C(=O)N(Cc1ccnc(C(C)(C)O)c1)C1C=CS(=O)(=O)C1)c1ccc(-c2ccc(F)cc2)cc1F (single isomer, unassigned) [I-258, (2R**)-2-{3,4′-difluoro-[1,1′-biphenyl]-4-yl}-N-[(3R*)-1,1-dioxo-2,3-dihydro-1lambda6-thiophen-3-yl]-N-{[2-(2-hydroxypropan-2-yl)pyridin-4-yl]methyl}-N′,N′-dimethylpropanediamide] | 5.00 to 5.30
6 | Cc1cccn1-c1ccc(CC(=O)N(Cc2ccc(C(=O)N(C)Cc3cn(Cc4ccc(NC(=O)CCOCCOCCOCCOCCNC(=O)CCCC[C@@H]5SC[C@@H]6NC(=O)N[C@@H]65)cn4)nn3)cc2)C2C=CS(=O)(=O)C2)c(F)c1 (single isomer, unassigned) [II-1] | 5.30 to 6.30
7 | CC(C)(O)c1cc(CN(C(=O)Cn2cc3cc(S(F)(F)(F)(F)F)ccc3n2)[C@@H]2C=CS(=O)(=O)C2)ccn1 [I-7, (R)—N-(1,1-dioxido-2,3-dihydrothiophen-3-yl)-N-((2-(2-hydroxypropan-2-yl)pyridin-4-yl)methyl)-2-(5-(pentafluoro-λ^6-sulfaneyl)-2H-indazol-2-yl)acetamide] | > 6.30
8 | CC(C)(O)c1cc(CN(C(=O)Cn2cc(-c3ccccc3F)cn2)C2C=CS(=O)(=O)C2)ccn1 (centres unmarked) [I-108, N-(1,1-dioxo-2,3-dihydro-1lambda6-thiophen-3-yl)-2-[4-(2-fluorophenyl)-1H-pyrazol-1-yl]-N-{[2-(2-hydroxypropan-2-yl)pyridin-4-yl]methyl}acetamide] | 5.30 to 6.30
9 | O=C(C1CC(c2ccccc2)O1)N(Cc1ccncc1)C1C=CS(=O)(=O)C1 (centres unmarked) [I-647, N-(1,1-dioxo-2,3-dihydro-1lambda6-thiophen-3-yl)-4-phenyl-N-[(pyridin-4-yl)methyl]oxetane-2-carboxamide] | < 4.30
10 | CC(C)(O)c1cc(CN(C(=O)C(c2ccc(-c3ccc(F)c(F)c3)cc2F)n2cccn2)C2C=CS(=O)(=O)C2)ccn1 (single isomer, unassigned) [I-670, (2R*)-N-[(3R**)-1,1-dioxo-2,3-dihydro-1lambda6-thiophen-3-yl]-N-{[2-(2-hydroxypropan-2-yl)pyridin-4-yl]methyl}-2-(1H-pyrazol-1-yl)-2-{3,3′,4′-trifluoro-[1,1′-biphenyl]-4-yl}acetamide] | 5.30 to 6.30
11 | COc1cc(CN(C(=O)Cn2cc(-c3ccc(F)c(F)c3)c(C)n2)[C@@H]2C=CS(=O)(=O)C2)ccn1 [I-713, 2-[4-(3,4-difluorophenyl)-3-methyl-1H-pyrazol-1-yl]-N-[(3R)-1,1-dioxo-2,3-dihydro-1lambda6-thiophen-3-yl]-N-[(2-methoxypyridin-4-yl)methyl]acetamide] | 4.30 to 5.00
12 | COc1cc(CN(C(=O)Cc2ccc(-c3ccc(F)cc3)cc2F)C2C=CS(=O)(=O)C2)ccn1 (centres unmarked) [I-87, 2-{3,4′-difluoro-[1,1′-biphenyl]-4-yl}-N-(1,1-dioxo-2,3-dihydro-1lambda6-thiophen-3-yl)-N-[(2-methoxypyridin-4-yl)methyl]acetamide] | 5.30 to 6.30
13 | O=C(C1Cc2ccc(Cl)cc21)N(Cc1ccncc1)C1C=CS(=O)(=O)C1 (centres unmarked) [I-650, 4-chloro-N-(1,1-dioxo-2,3-dihydro-1lambda6-thiophen-3-yl)-N-[(pyridin-4-yl)methyl]bicyclo[4.2.0]octa-1,3,5-triene-7-carboxamide] | < 4.30
14 | CNC(=O)CC(C(=O)N(Cc1ccncc1)C1C=CS(=O)(=O)C1)c1ccc(-c2ccc(F)cc2)cc1 (centres unmarked) [I-562, N-(1,1-dioxo-2,3-dihydro-1lambda6-thiophen-3-yl)-2-{4′-fluoro-[1,1′-biphenyl]-4-yl}-N′-methyl-N-[(pyridin-4-yl)methyl]butanediamide] | < 4.30
15 | CC(C)(O)c1cc(CN(C(=O)Cc2ccc(C(F)(F)C(F)(F)F)cc2)C2C=CS(=O)(=O)C2)ccn1 (single isomer, unassigned) [I-673] | > 6.30
16 | COc1cc(CN(C(=O)Cc2ccc(-n3cccc3C)cc2F)[C@@H]2C=CS(=O)(=O)C2)ccn1 [I-56, N-[(3R)-1,1-dioxo-2,3-dihydro-1lambda6-thiophen-3-yl]-2-[2-fluoro-4-(2-methyl-1H-pyrrol-1-yl)phenyl]-N-[(2-methoxypyridin-4-yl)methyl]acetamide] | > 6.30
17 | O=C1Nc2ccccc2C1CCC(=O)N(Cc1ccncc1)C1C=CS(=O)(=O)C1 (centres unmarked) [I-585, N-(1,1-dioxo-2,3-dihydro-1lambda6-thiophen-3-yl)-3-(2-oxo-2,3-dihydro-1H-indol-3-yl)-N-[(pyridin-4-yl)methyl]propanamide] | < 4.30

The next lines start with the values.

Row | pIC50 | SMILES
18 | < 4.30 | O=C(Cc1ccc2c[nH]nc2c1)N(Cc1ccncc1)C1C=CS(=O)(=O)C1 (centres unmarked) [I-414, N-(1,1-dioxo-2,3-dihydro-1lambda6-thiophen-3-yl)-2-(2H-indazol-6-yl)-N-[(pyridin-4-yl)methyl]acetamide]
19 | 5.00 to 5.30 | CS(=O)(=O)c1ccc(CN(C(=O)Cc2ccc(-n3cccc3)cc2)C2C=CS(=O)(=O)C2)cc1 (centres unmarked) [I-256, N-(1,1-dioxo-2,3-dihydro-1lambda6-thiophen-3-yl)-N-[(4-methanesulfonylphenyl)methyl]-2-[4-(1H-pyrrol-1-yl)phenyl]acetamide]
20 | 5.30 to 6.30 | Cc1cccn1-c1ccc(CC(=O)N(Cc2ccc(C(=O)O)cc2)C2C=CS(=O)(=O)C2)c(F)c1 (centres unmarked) [I-138, 4-{[N-(1,1-dioxo-2,3-dihydro-1lambda6-thiophen-3-yl)-2-[2-fluoro-4-(2-methyl-1H-pyrrol-1-yl)phenyl]acetamido]methyl}benzoic acid]
21 | 5.30 to 6.30 | O=C(Cc1ccc(-c2ccc(F)cc2F)cc1)N(Cc1ccncc1)C1C=CS(=O)(=O)C1 (centres unmarked) [I-203, 2-{2′,4′-difluoro-[1,1′-biphenyl]-4-yl}-N-(1,1-dioxo-2,3-dihydro-1lambda6-thiophen-3-yl)-N-[(pyridin-4-yl)methyl]acetamide]
22 | 4.30 to 5.00 | CC(C)Cc1ccc(CC(=O)N(Cc2ccncc2)C2C=CS(=O)(=O)C2)cc1 (centres unmarked) [I-283, N-(1,1-dioxo-2,3-dihydro-1lambda6-thiophen-3-yl)-2-[4-(2-methylpropyl)phenyl]-N-[(pyridin-4-yl)methyl]acetamide]
23 | < 4.30 | O=C(Cc1ccc(-n2cccc2)cc1)N(c1ccccc1)C1C=CS(=O)(=O)C1 (centres unmarked) [I-421, N-(1,1-dioxo-2,3-dihydro-1lambda6-thiophen-3-yl)-N-phenyl-2-[4-(1H-pyrrol-1-yl)phenyl]acetamide]
24 | 5.00 to 5.30 | O=C(Cc1ccc(-n2cccc2)cc1)N(Cc1ccc(C2CC2)cn1)C1C=CS(=O)(=O)C1 (centres unmarked) [I-285, N-[(5-cyclopropylpyridin-2-yl)methyl]-N-(1,1-dioxo-2,3-dihydro-1lambda6-thiophen-3-yl)-2-[4-(1H-pyrrol-1-yl)phenyl]acetamide]
25 | 4.30 to 5.00 | O=C(Cc1ccc(-n2cccc2)cc1)N(Cc1noc(C2CC2)n1)C1C=CS(=O)(=O)C1 (centres unmarked) [I-342, N-[(5-cyclopropyl-1,2,4-oxadiazol-3-yl)methyl]-N-(1,1-dioxo-2,3-dihydro-1lambda6-thiophen-3-yl)-2-[4-(1H-pyrrol-1-yl)phenyl]acetamide]
26 | 5.30 to 6.30 | O=C(Cc1ccc(-n2cccc2)cc1)N(Cc1ccnc2ccccc12)C1C=CS(=O)(=O)C1 (centres unmarked) [I-170, N-(1,1-dioxo-2,3-dihydro-1lambda6-thiophen-3-yl)-2-[4-(1H-pyrrol-1-yl)phenyl]-N-[(quinolin-4-yl)methyl]acetamide]
